Reference: ChEMBL document CHEMBL1255387, “Mechanism of hepatitis C virus RNA polymerase inhibition with dihydroxypyrimidines” (Antimicrob Agents Chemother, 2010)

Legend:
[1] = target: T1, RNA-directed RNA polymerase (Hepacivirus hominis, UniProt O39930); test: Displacement of 100 uM PPi from NS5B in Hepatitis C virus
[2] = target: T1, RNA-directed RNA polymerase; test: Displacement of 50 uM PPi from NS5B in Hepatitis C virus
[3] = target: T1, RNA-directed RNA polymerase; test: Displacement of 0.1 uM UTP from NS5B in Hepatitis C virus
[4] = target: RNA-directed RNA polymerase (Hepacivirus hominis, UniProt O39930, G152E); test: Inhibition of NS5B G152E mutant-mediated RNA synthesis in Hepatitis C virus as decrease in formation of full-length product after 45 mins
RNA-directed RNA polymerase (Hepacivirus hominis, UniProt O39930, G152E), sequence (O39930 entry or part of it G152E): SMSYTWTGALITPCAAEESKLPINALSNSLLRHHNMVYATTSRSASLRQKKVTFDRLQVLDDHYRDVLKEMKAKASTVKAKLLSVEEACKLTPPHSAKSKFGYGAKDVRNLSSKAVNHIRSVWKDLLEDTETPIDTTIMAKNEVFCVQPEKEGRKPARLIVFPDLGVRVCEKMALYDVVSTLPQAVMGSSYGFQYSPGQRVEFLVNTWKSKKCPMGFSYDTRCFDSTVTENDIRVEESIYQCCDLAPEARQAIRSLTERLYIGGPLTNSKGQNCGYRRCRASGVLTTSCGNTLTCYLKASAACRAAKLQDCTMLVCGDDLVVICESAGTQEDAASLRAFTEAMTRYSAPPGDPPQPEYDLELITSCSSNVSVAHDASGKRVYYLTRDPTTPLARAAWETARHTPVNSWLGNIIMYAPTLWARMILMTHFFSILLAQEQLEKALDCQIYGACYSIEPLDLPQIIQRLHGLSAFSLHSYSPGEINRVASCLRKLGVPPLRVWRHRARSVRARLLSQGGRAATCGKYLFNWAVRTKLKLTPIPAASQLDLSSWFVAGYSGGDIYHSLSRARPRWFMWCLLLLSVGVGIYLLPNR

[5] = target: T1, RNA-directed RNA polymerase; test: Displacement of 500 uM PPi from NS5B in Hepatitis C virus
[6] = target: RNA-directed RNA polymerase (Hepacivirus hominis, UniProt O39930, P156L); test: Inhibition of NS5B P156L mutant-mediated RNA synthesis in Hepatitis C virus as decrease in formation of full-length product after 45 mins
RNA-directed RNA polymerase (Hepacivirus hominis, UniProt O39930, P156L), sequence (O39930 entry or part of it P156L): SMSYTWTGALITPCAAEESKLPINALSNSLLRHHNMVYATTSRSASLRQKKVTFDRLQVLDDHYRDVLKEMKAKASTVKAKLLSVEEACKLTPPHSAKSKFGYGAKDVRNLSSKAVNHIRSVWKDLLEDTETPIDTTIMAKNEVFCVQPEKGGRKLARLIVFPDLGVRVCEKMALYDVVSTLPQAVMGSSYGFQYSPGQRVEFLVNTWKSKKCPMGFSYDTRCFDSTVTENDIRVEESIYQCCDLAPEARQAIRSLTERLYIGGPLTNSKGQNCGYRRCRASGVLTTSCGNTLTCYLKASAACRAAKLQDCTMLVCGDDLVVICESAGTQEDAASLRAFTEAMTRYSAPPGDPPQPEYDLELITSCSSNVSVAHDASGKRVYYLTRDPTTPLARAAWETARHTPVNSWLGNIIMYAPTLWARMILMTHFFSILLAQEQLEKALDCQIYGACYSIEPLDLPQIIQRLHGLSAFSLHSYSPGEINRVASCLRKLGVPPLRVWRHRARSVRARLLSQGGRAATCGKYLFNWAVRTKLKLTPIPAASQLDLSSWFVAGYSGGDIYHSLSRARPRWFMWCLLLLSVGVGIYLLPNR

[7] = target: T1, RNA-directed RNA polymerase; test: Inhibition of NS5B-mediated RNA synthesis in Hepatitis C virus assessed as decrease in formation of full-length product after 45 mins
[8] = target: T1, RNA-directed RNA polymerase; test: Displacement of 5 uM UTP from NS5B in Hepatitis C virus
[9] = target: T1, RNA-directed RNA polymerase; test: Displacement of 1 uM UTP from NS5B in Hepatitis C virus

T1 sequence (O39930 whole entry): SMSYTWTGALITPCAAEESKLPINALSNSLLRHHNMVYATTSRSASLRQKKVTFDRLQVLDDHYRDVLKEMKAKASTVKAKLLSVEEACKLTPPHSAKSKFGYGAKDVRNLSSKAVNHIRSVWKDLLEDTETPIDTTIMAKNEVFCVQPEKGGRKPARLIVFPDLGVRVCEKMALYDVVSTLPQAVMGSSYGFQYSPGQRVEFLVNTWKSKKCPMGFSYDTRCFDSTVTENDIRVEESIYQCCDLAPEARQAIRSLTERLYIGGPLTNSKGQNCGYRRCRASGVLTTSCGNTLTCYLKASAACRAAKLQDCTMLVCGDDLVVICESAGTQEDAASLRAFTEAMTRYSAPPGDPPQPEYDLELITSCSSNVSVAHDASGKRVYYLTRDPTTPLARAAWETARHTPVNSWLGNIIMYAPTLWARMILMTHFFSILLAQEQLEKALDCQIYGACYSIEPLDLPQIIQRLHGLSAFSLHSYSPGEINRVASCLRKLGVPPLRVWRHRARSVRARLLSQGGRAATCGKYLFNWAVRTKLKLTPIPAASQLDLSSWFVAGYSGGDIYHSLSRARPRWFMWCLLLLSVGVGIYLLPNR

In the case of `O=C(Nc1ccsc1-c1nc(O)c(O)c(C(=O)O)n1)OCc1c(Cl)cccc1Cl`, the IC50 [1] is reported as 302 nM, the IC50 [2] is reported as 174 nM and the IC50 [3] is reported as 258 nM. It also gave an IC50 [4] of 3780 nM, an IC50 [5] of 882 nM and an IC50 [6] of 5390 nM. The IC50 [7] was 730 nM, the IC50 [8] was greater than 1000 nM and the IC50 [9] was greater than 500 nM.
